Results from article PMC12305662, “Fragment-Based Development of Small Molecule Inhibitors Targeting Mycobacterium tuberculosis Cholesterol Metabolism” (Journal of Medicinal Chemistry, 2025).
≈ marks a conversion by molar mass, not a printed value. Where two headings read alike, the source gives them in different places.

Columns and labels:
CYP125 [1] = target: T1, CYP125 (Mycobacterium tuberculosis, UniProt P9WPP1); test: biochemical; assay type: binding; conditions: read-out: KD (μM) CYP125
CYP125 [2] = target: T1, CYP125; assay type: binding; conditions: for CYP125 Δλmax (nm) LS: low spin population, '-' = no LS maxima present; for Δλmax (nm) CYP125, fragment screen: fragment 1 mM, P450 4-6 µM, Soret shift relative to DMSO (393 nm)
CYP142 [3] = target: T2, CYP142 (Mycobacterium tuberculosis, UniProt P9WPL5); conditions: for Δλmax (nm) CYP142, fragment screen: fragment 1 mM, P450 4-6 µM, relative to DMSO (418.5 nm)
T2 sequence (P9WPL5 whole entry, the tested form may be a part): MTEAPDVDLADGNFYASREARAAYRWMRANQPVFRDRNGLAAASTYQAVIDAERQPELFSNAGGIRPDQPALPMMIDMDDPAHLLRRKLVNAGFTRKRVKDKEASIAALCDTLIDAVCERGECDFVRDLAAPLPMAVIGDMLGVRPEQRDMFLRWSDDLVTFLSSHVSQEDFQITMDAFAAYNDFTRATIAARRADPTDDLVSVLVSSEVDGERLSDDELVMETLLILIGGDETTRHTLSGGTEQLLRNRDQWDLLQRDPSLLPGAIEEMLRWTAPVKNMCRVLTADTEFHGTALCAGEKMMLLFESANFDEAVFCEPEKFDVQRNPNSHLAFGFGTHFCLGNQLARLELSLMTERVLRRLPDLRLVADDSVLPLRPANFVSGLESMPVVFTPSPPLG

CYP142 [4] = target: T2, CYP142; test: biochemical
CYP125 [5] = target: T1, CYP125; test: LC-MS substrate turnover assay (cholest-4-en-3-one); assay type: biochemical; conditions: for IC50: CYP125 0.5 μM, cholest-4-en-3-one 5 µM, LC-MS, read-out: CYP125A1 IC50; for Ki: estimated by Cheng-Prusoff, cholest-4-en-3-one Km CYP125 = 2.1 µM, read-out: CYP125A1 KI
Mtb H37Rv [6] = test: Extracellular Mtb growth on cholesterol, MABA MIC99; assay type: cell-based, Mycobacterium tuberculosis; conditions: Mycobacterium tuberculosis, H37RV, 336 h; cholesterol as sole carbon source; 2 weeks post-compound treatment; read-out: MABA-MIC99 (W2) H37Rv, cholesterol
Mtb CDC1551 [7] = test: as above; assay type: cell-based, Mycobacterium tuberculosis; conditions: Mycobacterium tuberculosis, CDC1551, 336 h; cholesterol as sole carbon source; 2 weeks post-compound treatment; read-out: MABA-MIC99 (W2) CDC1551, cholesterol
Mtb H37Rv [8] = test: Depletion of intracellular ATP (BacTiter Glo), Mtb on cholesterol; assay type: cell-based, Mycobacterium tuberculosis; conditions: cholesterol as sole carbon source
Mtb CDC1551 [9] = test: as above; assay type: cell-based; conditions: Mycobacterium tuberculosis, cholesterol as sole carbon source
CYP124 = CYP124 (Mycobacterium tuberculosis, UniProt P9WPP3); conditions: fragment 1 mM, P450 4-6 µM; relative to DMSO (419 nm)
Chain of CYP124 (P9WPP3 whole entry, the tested form may be a part): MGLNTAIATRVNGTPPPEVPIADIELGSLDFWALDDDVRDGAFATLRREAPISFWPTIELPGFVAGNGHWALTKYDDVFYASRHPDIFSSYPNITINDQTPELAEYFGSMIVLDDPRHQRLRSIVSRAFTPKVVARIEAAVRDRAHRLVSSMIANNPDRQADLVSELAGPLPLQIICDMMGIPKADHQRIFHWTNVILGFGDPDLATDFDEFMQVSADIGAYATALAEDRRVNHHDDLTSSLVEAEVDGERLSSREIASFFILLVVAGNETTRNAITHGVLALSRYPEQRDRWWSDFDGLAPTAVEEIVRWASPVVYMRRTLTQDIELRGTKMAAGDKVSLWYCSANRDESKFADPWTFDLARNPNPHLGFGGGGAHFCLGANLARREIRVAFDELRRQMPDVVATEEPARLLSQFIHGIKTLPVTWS

CYP121 = CYP121 (Mycobacterium tuberculosis, UniProt P9WPP7); conditions: fragment 1 mM, P450 4-6 µM; relative to DMSO (417 nm)
Chain of CYP121 (P9WPP7 whole entry, the tested form may be a part): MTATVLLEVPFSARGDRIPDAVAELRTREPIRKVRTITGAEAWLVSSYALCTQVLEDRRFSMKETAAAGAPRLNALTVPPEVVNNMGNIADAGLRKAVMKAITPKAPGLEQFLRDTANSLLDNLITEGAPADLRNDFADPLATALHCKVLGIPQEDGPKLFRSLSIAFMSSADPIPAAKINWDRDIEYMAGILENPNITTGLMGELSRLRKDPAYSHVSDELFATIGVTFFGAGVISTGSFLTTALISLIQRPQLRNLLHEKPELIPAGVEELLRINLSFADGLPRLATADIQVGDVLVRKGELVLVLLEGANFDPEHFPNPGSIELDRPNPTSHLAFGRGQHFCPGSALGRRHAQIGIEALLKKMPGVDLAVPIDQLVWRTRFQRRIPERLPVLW

CYP126 = CYP126 (Mycobacterium tuberculosis, UniProt P9WPN9); conditions: fragment 1 mM, P450 4-6 µM; relative to DMSO (418 nm)
Chain of CYP126 (P9WPN9 whole entry, the tested form may be a part): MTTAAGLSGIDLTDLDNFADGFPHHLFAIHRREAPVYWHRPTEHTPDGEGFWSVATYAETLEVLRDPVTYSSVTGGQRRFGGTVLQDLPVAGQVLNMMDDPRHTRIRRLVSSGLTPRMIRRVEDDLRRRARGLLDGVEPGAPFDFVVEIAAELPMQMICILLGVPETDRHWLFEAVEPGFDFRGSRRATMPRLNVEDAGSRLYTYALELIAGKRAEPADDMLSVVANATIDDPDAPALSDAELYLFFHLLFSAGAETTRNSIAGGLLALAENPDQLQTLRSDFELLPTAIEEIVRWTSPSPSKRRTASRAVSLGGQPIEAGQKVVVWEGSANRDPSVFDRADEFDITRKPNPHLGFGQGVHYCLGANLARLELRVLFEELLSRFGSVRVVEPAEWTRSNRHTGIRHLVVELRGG

CYP143 = CYP143 (Mycobacterium tuberculosis, UniProt P9WPL3); conditions: fragment 1 mM, P450 4-6 µM; relative to DMSO (416 nm)
Chain of CYP143 (P9WPL3 whole entry, the tested form may be a part): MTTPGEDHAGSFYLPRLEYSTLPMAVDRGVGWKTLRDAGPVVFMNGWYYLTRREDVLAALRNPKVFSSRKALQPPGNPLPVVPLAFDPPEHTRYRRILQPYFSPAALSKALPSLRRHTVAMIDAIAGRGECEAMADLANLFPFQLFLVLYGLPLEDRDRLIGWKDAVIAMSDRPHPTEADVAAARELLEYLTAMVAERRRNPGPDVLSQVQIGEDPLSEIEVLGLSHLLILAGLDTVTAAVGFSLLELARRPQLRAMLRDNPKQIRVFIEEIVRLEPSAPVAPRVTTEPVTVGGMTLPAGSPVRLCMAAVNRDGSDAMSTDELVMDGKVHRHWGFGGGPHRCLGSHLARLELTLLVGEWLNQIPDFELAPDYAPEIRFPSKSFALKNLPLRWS

CYP144 = CYP144 (Mycobacterium tuberculosis, UniProt P9WPL1); conditions: fragment 1 mM, P450 4-6 µM; relative to DMSO (421 nm)
Chain of CYP144 (P9WPL1 whole entry, the tested form may be a part): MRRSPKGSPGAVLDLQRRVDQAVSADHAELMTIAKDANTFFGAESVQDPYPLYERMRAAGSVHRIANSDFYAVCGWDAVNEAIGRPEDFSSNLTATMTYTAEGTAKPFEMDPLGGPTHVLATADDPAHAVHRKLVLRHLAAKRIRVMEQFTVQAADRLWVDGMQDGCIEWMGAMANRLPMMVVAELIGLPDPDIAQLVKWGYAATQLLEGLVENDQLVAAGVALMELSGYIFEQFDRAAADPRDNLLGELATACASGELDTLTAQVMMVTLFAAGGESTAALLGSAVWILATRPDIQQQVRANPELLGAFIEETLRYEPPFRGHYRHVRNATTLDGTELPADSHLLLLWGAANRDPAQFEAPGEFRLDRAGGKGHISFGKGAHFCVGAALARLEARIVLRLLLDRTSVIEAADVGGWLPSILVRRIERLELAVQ

[10] = Mycobacterium tuberculosis, H37RV, 168 h, 1 week post-compound treatment, read-out: ATP-IC50 (W1) H37Rv, cholesterol
[11] = Mycobacterium tuberculosis, H37RV, 336 h, 2 weeks post-compound treatment, read-out: ATP-IC50 (W2) H37Rv, cholesterol
[12] = CDC1551, 168 h, 1 week post-compound treatment, read-out: ATP-IC50 (W1) CDC1551, cholesterol
[13] = CDC1551, 336 h, 2 weeks post-compound treatment, read-out: ATP-IC50 (W2) CDC1551, cholesterol

T1 sequence (P9WPP1 whole entry, the tested form may be a part): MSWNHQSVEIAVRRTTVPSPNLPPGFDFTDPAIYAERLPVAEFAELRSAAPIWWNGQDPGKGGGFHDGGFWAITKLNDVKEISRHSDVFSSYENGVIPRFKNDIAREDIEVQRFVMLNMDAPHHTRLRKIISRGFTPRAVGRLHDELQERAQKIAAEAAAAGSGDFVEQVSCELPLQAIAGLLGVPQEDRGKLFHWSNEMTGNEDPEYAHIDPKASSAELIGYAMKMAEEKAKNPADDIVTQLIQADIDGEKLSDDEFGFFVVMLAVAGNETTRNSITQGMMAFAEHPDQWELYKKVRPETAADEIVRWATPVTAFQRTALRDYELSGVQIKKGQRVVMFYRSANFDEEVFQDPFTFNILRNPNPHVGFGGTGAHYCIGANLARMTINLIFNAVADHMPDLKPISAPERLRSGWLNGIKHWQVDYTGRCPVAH

Compound | Δλmax (nm) CYP125, fragment screen (CYP125 [2]) [nm] | Δλmax (nm) CYP142, fragment screen (CYP142 [3]) [nm] | Δλmax (nm) CYP124, fragment screen (CYP124) [nm] | Δλmax (nm) CYP121, fragment screen (CYP121) [nm] | Δλmax (nm) CYP126, fragment screen (CYP126) [nm] | Δλmax (nm) CYP143, fragment screen (CYP143) [nm] | Δλmax (nm) CYP144, fragment screen (CYP144) [nm] | further results
c1ccc(Cc2ccncc2)cc1 [1a] | – | – | – | – | – | – | – | Kd (CYP125 [1]): 180 ± 6.7 µM; CYP125 Δλmax (nm) HS (CYP125 [2]; compound 100 µM, P450 5 µM, high spin population, '-' = no HS maxima present): 2 nm; CYP125 Δλmax (nm) LS (CYP125 [2]; compound 100 µM, P450 5 µM): 27 nm
CC(=O)Nc1ccc(Cc2ccncc2)cc1 [3f, N-(4-(Pyridin-4-ylmethyl)phenyl)acetamide] | – | – | – | – | – | – | – | Kd (CYP125 [1]): 18 ± 0.56 µM; CYP125 Δλmax (nm) LS (CYP125 [2]; compound 100 µM, P450 5 µM): 13 nm; CYP142 Δλmax (nm) (CYP142 [3]; compound 100 µM, P450 5 µM): 2 nm; Kd (CYP142 [4]): 1.4 ± 0.36 µM
O=C(Nc1ccc(Nc2ccncc2)cc1)c1ccccc1 [5b, N-(4-(Pyridin-4-ylamino)phenyl)benzamide] | – | – | – | – | – | – | – | Kd (CYP125 [1]): 11 ± 1.8 µM; Kd (CYP142 [4]): 2.83 ± 0.001 µM
O=C(NCc1ccc2[nH]ccc2c1)c1cccc(Cc2ccncc2)c1 [5e, N-((1H-Indol-5-yl)methyl)-3-(pyridin-4-ylmethyl)benzamide] | – | – | – | – | – | – | – | Kd (CYP125 [1]): 4 ± 0.36 µM; IC50 (CYP125 [5]): 9.2 ± 0.89 µM; Ki (CYP125 [5]): 2.7 µM; MIC99 (Mtb H37Rv [6]): 13 µM (≈ 4.44 µg/mL); MIC99 (Mtb CDC1551 [7]): 6.3 µM (≈ 2.15 µg/mL); IC50 (Mtb H37Rv [8]; [10]): 2.3 µM; IC50 (Mtb H37Rv [8]; [11]): 19 µM; IC50 (Mtb CDC1551 [9]; [12]): 0.07 µM; IC50 (Mtb CDC1551 [9]; [13]): 19 µM
O=C(NCc1ccc2[nH]ccc2c1)c1cccc(Nc2ccncc2)c1 [5g, N-((1H-Indol-5-yl)methyl)-3-(pyridin-4-ylamino)benzamide] | – | – | – | – | – | – | – | Kd (CYP125 [1]): 3.8 ± 0.18 µM; IC50 (CYP125 [5]): 25 ± 2.4 µM; Ki (CYP125 [5]): 7.1 µM; MIC99 (Mtb H37Rv [6]): 13 µM (≈ 4.45 µg/mL); MIC99 (Mtb CDC1551 [7]): 25 µM (≈ 8.56 µg/mL); IC50 (Mtb H37Rv [8]; [10]): < 5 µM; IC50 (Mtb H37Rv [8]; [11]): 9.4 µM; IC50 (Mtb H37Rv [8]; 1 week post-compound treatment, read-out: ATP-IC50 (W1) H37Rv, cholesterol): 4.7 µM; IC50 (Mtb CDC1551 [9]; [12]): 9.4 µM; IC50 (Mtb CDC1551 [9]; [13]): 38 µM
COc1ccc(CNc2cccc(Cc3ccncc3)c2)cc1 [5l, N-(4-Methoxybenzyl)-3-(pyridin-4-ylmethyl)aniline] | – | – | – | – | – | – | – | Kd (CYP125 [1]): 6.4 ± 1.1 µM; IC50 (CYP125 [5]): 18 ± 1.9 µM; Ki (CYP125 [5]): 5.4 µM; MIC99 (Mtb H37Rv [6]): 19 µM (≈ 5.78 µg/mL); IC50 (Mtb H37Rv [8]; [10]): 0.59 µM; IC50 (Mtb H37Rv [8]; [11]): 2.3 µM
CS(=O)(=O)c1cccc(CNc2ccc(Cc3ccncc3)cc2)c1 [5p, N-(3-(Methylsulfonyl)benzyl)-4-(pyridin-4-ylmethyl)aniline] | – | – | – | – | – | – | – | Kd (CYP125 [1]): 0.35 ± 0.19 µM; IC50 (CYP125 [5]): 10 ± 0.95 µM; Ki (CYP125 [5]): 3.1 µM; MIC99 (Mtb H37Rv [6]): 13 µM (≈ 4.58 µg/mL); MIC99 (Mtb CDC1551 [7]): 13 µM (≈ 4.58 µg/mL); IC50 (Mtb H37Rv [8]; [10]): 1.2 µM; IC50 (Mtb H37Rv [8]; [11]): 4.7 µM; IC50 (Mtb CDC1551 [9]; [12]): 2.3 µM; IC50 (Mtb CDC1551 [9]; [13]): 19 µM
O=c1ccc(Br)c[nH]1 [compound 58] | 0 | 0 | 0 | 0 | -1 | 0.5 | 0 | –
O=C(O)c1cncc(F)c1 [compound 60] | 0 | 0 | 0 | 0 | 0 | 1 | 0 | –
c1ccc(N2CCOCC2)nc1 [compound 63] | 0 | 0 | 0 | 0 | 0 | 1 | 0 | –
O=C1CCN(c2ccccc2)N1 [compound 64] | 0 | 1.5 | -1 | 0 | 0 | 1 | 0 | –
CCc1nc(C)c[nH]1 [compound 67] | 0 | 0 | 0 | -1 | 0 | 0 | 0 | –
c1ccc(-c2c[nH]cn2)cc1 [compound 68] | 0 | 3 | 4 | 0 | 1 | 2 | 0 | –
OCc1ccc(Cn2cncn2)cc1 [compound 69] | 0 | 0 | 0 | 0 | 0 | 0 | 0 | –
Cn1nc(C(=O)O)cc1-c1ccccc1 [compound 70] | 0 | 0 | 2 | 0 | 0 | 0.5 | 0 | –
N#Cc1cccc(-n2ccnc2)c1 [compound 71] | 0 | 3 | 1 | 0 | 0 | 2.5 | 0 | –
N#Cc1ncccc1F [compound 72] | 0 | 0 | 0 | 0 | 0 | 0 | 0 | –
Nc1ccc(Cl)nn1 [compound 73] | 0 | 0 | 0 | 0 | 0 | 0 | 0 | –
O=C(O)c1cccc(-c2cccnc2)c1 [compound 74] | 0 | 0 | 0 | 0 | 0 | 1 | 0 | –
C#Cc1cccnc1 [compound 75] | 0 | 0 | 0 | 0 | 0 | 0 | 0 | –
Brc1c[nH]cn1 [compound 77] | 0 | 3 | 0 | -1 | 0 | 0.5 | 0 | –
O=S(=O)(O)c1ccccn1 [compound 78] | 0 | 0 | 0 | 0 | 0 | 1 | 0 | –
O=C(O)[C@@H]1Cc2ccccc2CN1 [compound 79] | -2 | 0 | 0 | 1 | 0 | 0 | 0 | –
Cc1ccc(S(N)(=O)=O)nc1 [compound 80] | 0 | 0 | 0 | 0 | 0 | 0 | 0 | –
